Source: patent publication US20230139445A1, “BACTERIAL CELLS WITH IMPROVED TOLERANCE TO DIACIDS” (priority 2016, published 2023)
Like-named read-outs stand apart in the source and are kept apart here.

Key:
[1] = tested on: Escherichia coli K-12 MG1655; experiment: Screening for tolerance in wild-type cells: growth in varying concentrations of neutralized diacid, Biolector; type: cell-based; details: for tlag (lag time), mean / μ (growth rate), mean: neutralized with sodium hydroxide
Description: Escherichia coli K-12 MG1655 was grown overnight in M9 minimal medium+1% glucose and subcultured the following morning to an initial OD600 of 0.05 in M9+1% glucose. Cells were grown to mid-exponential phase (OD600 0.7-1.0) and were back-diluted with fresh medium to an OD600 of 0.7. The diluted cells were used to inoculate M9+1% glucose containing varying concentrations of glutaric acid or adipic acid which were neutralized to pH 7.0 with sodium hydroxide, and growth was measured in FlowerPlates in a Biolector microbioreactor system (m2p-labs) at 37° C. with 1000 rpm shaking. The culture volume in each well was 1.4 mL.

[2] = tested on: Escherichia coli K-12 MG1655 and evolved isolates; type: cell-based; details: 38 g/L sebacic acid
Description: Five colonies from wild-type K-12 MG1655 and 10 individual colonies deriving from each population were inoculated into 300 μL M9+1% glucose in 96 well deepwell plates and incubated in a 300 rpm plate shaker at 37° C. The next day, cells were diluted 10× in M9+1% glucose and 30 μL was transferred into clear-bottomed 96 well half-deepwell plates (with rectangular wells) containing M9+1% glucose and M9+1% glucose+52.78 g/L glutaric acid or 55.56 g/L adipic acid, such that the final concentration of glutaric acid or adipic acid was 47.5 g/L or 50 g/L, respectively. In addition, cryogenic glycerol stocks of the overnight culture were saved in a 96 well plate format. Half deepwell plates were incubated at 37° C. with 225 rpm shaking in a Growth Profiler (Enzyscreen), with optical scans of the plates taken at 15 minute intervals. Green pixel values integrated over a 1 mm diameter circular area in each well were converted to OD600 values using a previously determined calibration between OD600 and green pixel values.
Additionally, each evolved isolate was tested for cross-tolerance toward other dicarboxylic acids of interest. […] All diacids tested were either the neutral sodium salts, or the free diacid was neutralized with sodium hydroxide to pH 7.0 for testing.

SMILES: O=C(O)CCCCCCCCC(=O)O [sebacic acid]
- tlag (lag time), mean ([1]; 10 g/L): 1.9 h
- μ (growth rate), mean ([1]; 10 g/L, M9+1% glucose, 37° C): 0.707 h⁻¹
- tlag (lag time), mean ([1]; 20 g/L): 2.7 h
- μ (growth rate), mean ([1]; 20 g/L): 0.578 h⁻¹
- tlag (lag time), mean ([1]; 25 g/L): 3.3 h
- μ (growth rate), mean ([1]; 25 g/L): 0.413 h⁻¹
- tlag (lag time), mean ([1]; 30 g/L): 5.7 h
- μ (growth rate), mean ([1]; 30 g/L): 0.386 h⁻¹
- tlag (lag time), mean ([1]; 35 g/L): 10.8 h
- μ (growth rate), mean ([1]; 35 g/L): 0.306 h⁻¹
- tlag (lag time), mean ([1]; 40 g/L): 22.5 h
- μ (growth rate), mean ([1]; 40 g/L): 0.222 h⁻¹
- tlag (lag time), mean ([1]; 45 g/L): 50.6 h
- μ (growth rate), mean ([1]; 45 g/L): 0.051 h⁻¹
- growth of K-12 MG1655 ([1]; above 40 g/L concentration): nearly no growth detected
- growth rate μ (mean) ([2]; strain ADIP1-1): 0.244 h⁻¹
- lag time tlag (mean) ([2]; strain ADIP1-1): 21.6 h
- growth rate μ (mean) ([2]; strain ADIP1-9): 0.248 h⁻¹
- lag time tlag (mean) ([2]; strain ADIP1-9): 17.8 h
- growth rate μ (mean) ([2]; strain ADIP2-5): 0.315 h⁻¹
- lag time tlag (mean) ([2]; strain ADIP2-5): 13.5 h
- growth rate μ (mean) ([2]; strain ADIP2-6): 0.319 h⁻¹
- lag time tlag (mean) ([2]; strain ADIP2-6): 12.9 h
- growth rate μ (mean) ([2]; strain ADIP2-10): 0.290 h⁻¹
- lag time tlag (mean) ([2]; strain ADIP2-10): 13.4 h
- growth rate μ (mean) ([2]; strain ADIP3-2): 0.254 h⁻¹
- lag time tlag (mean) ([2]; strain ADIP3-2): 17.6 h
- growth rate μ (mean) ([2]; strain ADIP3-4): 0.262 h⁻¹
- lag time tlag (mean) ([2]; strain ADIP3-4): 17.1 h
- growth rate μ (mean) ([2]; strain ADIP3-8): 0.253 h⁻¹
- lag time tlag (mean) ([2]; strain ADIP3-8): 19.8 h
- growth rate μ (mean) ([2]; strain ADIP4-1): 0.308 h⁻¹
- lag time tlag (mean) ([2]; strain ADIP4-1): 13.1 h
- growth rate μ (mean) ([2]; strain ADIP4-8): 0.289 h⁻¹
- lag time tlag (mean) ([2]; strain ADIP4-8): 12.8 h
- growth rate μ (mean) ([2]; strain ADIP5-2): 0.288 h⁻¹
- lag time tlag (mean) ([2]; strain ADIP5-2): 15.3 h
- growth rate μ (mean) ([2]; strain ADIP5-6): 0.273 h⁻¹
- lag time tlag (mean) ([2]; strain ADIP5-6): 20.7 h
- growth rate μ (mean) ([2]; strain ADIP6-3): 0.268 h⁻¹
- lag time tlag (mean) ([2]; strain ADIP6-3): 17.9 h
- growth rate μ (mean) ([2]; strain ADIP6-9): 0.181 h⁻¹
- lag time tlag (mean) ([2]; strain ADIP6-9): 23.1 h
- growth rate μ (mean) ([2]; strain ADIP6-10): 0.267 h⁻¹
- lag time tlag (mean) ([2]; strain ADIP6-10): 15.3 h
- growth rate μ (mean) ([2]; strain ADIP7-2): 0.356 h⁻¹
- lag time tlag (mean) ([2]; strain ADIP7-2): 11.1 h
- growth rate μ (mean) ([2]; strain ADIP7-5): 0.353 h⁻¹
- lag time tlag (mean) ([2]; strain ADIP7-5): 12.0 h
- growth rate μ (mean) ([2]; strain ADIP8-3): 0.171 h⁻¹
- lag time tlag (mean) ([2]; strain ADIP8-3): 28.9 h
- growth rate μ (mean) ([2]; strain ADIP8-7): 0.157 h⁻¹
- lag time tlag (mean) ([2]; strain ADIP8-7): 30.9 h
- growth rate μ (mean) ([2]; strain ADIP8-10): 0.165 h⁻¹
- lag time tlag (mean) ([2]; strain ADIP8-10): 30.0 h
- growth rate μ (mean) ([2]; strain GLUT1-3): 0.074 h⁻¹
- lag time tlag (mean) ([2]; strain GLUT1-3): 34.9 h
- growth rate μ (mean) ([2]; strain GLUT1-9): 0.043 h⁻¹
- lag time tlag (mean) ([2]; strain GLUT1-9): 44.7 h
- growth rate μ (mean) ([2]; strain GLUT1-10): 0.278 h⁻¹
- lag time tlag (mean) ([2]; strain GLUT1-10): 20.6 h
- growth rate μ (mean) ([2]; strain GLUT2-1): 0.153 h⁻¹
- lag time tlag (mean) ([2]; strain GLUT2-1): 21.7 h
- growth rate μ (mean) ([2]; strain GLUT2-9): 0.282 h⁻¹
- lag time tlag (mean) ([2]; strain GLUT2-9): 12.5 h
- growth rate μ (mean) ([2]; strain GLUT2-10): 0.093 h⁻¹
- lag time tlag (mean) ([2]; strain GLUT2-10): 29.8 h
- growth rate μ (mean) ([2]; strain GLUT3-5): 0.106 h⁻¹
- lag time tlag (mean) ([2]; strain GLUT3-5): 20.0 h
- growth rate μ (mean) ([2]; strain GLUT3-7): 0.068 h⁻¹
- lag time tlag (mean) ([2]; strain GLUT3-7): 6.4 h
- growth rate μ (mean) ([2]; strain GLUT3-9): 0.158 h⁻¹
- lag time tlag (mean) ([2]; strain GLUT3-9): 18.9 h
- growth rate μ (mean) ([2]; strain GLUT4-1): 0.266 h⁻¹
- lag time tlag (mean) ([2]; strain GLUT4-1): 32.9 h
- growth rate μ (mean) ([2]; strain GLUT4-4): 0.265 h⁻¹
- lag time tlag (mean) ([2]; strain GLUT4-4): 34.2 h
- growth rate μ (mean) ([2]; strain GLUT4-10): 0.113 h⁻¹
- lag time tlag (mean) ([2]; strain GLUT4-10): 20.1 h
- growth rate μ (mean) ([2]; strain GLUT5-4): 0.183 h⁻¹
- lag time tlag (mean) ([2]; strain GLUT5-4): 37.7 h
- growth rate μ (mean) ([2]; strain GLUT5-5): 0.117 h⁻¹
- lag time tlag (mean) ([2]; strain GLUT5-5): 54.9 h
- growth rate μ (mean) ([2]; strain GLUT5-9): 0.143 h⁻¹
- lag time tlag (mean) ([2]; strain GLUT5-9): 58.2 h
- growth rate μ (mean) ([2]; strain GLUT6-4): 0.085 h⁻¹
- lag time tlag (mean) ([2]; strain GLUT6-4): 26.4 h
- growth rate μ (mean) ([2]; strain GLUT6-5): 0.123 h⁻¹
- lag time tlag (mean) ([2]; strain GLUT6-5): 21.6 h
- growth rate μ (mean) ([2]; strain GLUT6-10): 0.132 h⁻¹
- lag time tlag (mean) ([2]; strain GLUT6-10): 26.2 h
- growth rate μ (mean) ([2]; strain GLUT7-2): 0.173 h⁻¹
- lag time tlag (mean) ([2]; strain GLUT7-2): 17.5 h
- growth rate μ (mean) ([2]; strain GLUT7-6): 0.141 h⁻¹
- lag time tlag (mean) ([2]; strain GLUT7-6): 18.9 h
- growth rate μ (mean) ([2]; strain GLUT7-7): 0.112 h⁻¹
- lag time tlag (mean) ([2]; strain GLUT7-7): 20.0 h
- growth rate μ (mean) ([2]; strain GLUT8-5): 0.300 h⁻¹
- lag time tlag (mean) ([2]; strain GLUT8-5): 21.4 h
- growth rate μ (mean) ([2]; strain GLUT8-6): 0.464 h⁻¹
- lag time tlag (mean) ([2]; strain GLUT8-6): 13.7 h
- growth rate μ (mean) ([2]; strain GLUT8-9): 0.471 h⁻¹
- lag time tlag (mean) ([2]; strain GLUT8-9): 14.5 h
- growth rate μ (mean) ([2]; strain MG1655 (Table 28)): 0.167 h⁻¹
- lag time tlag (mean) ([2]; strain MG1655 (Table 28)): 26.9 h
- growth rate μ (mean) ([2]; strain MG1655 (Table 29)): 0.135 h⁻¹
- lag time tlag (mean) ([2]; strain MG1655 (Table 29)): 28.2 h
